In the assay the test system is MV-4-11 cells. The experiment in a line: Gene expression microarray analysis (Affymetrix PrimeView) and GSEA. It counts as cell-based, human. As to conditions: MV-4-11, 48 hours, 1 μM each.

The structures appear in SMILES notation.

For `Nc1ncn([C@@H]2O[C@H](CO)[C@@H](O)[C@H]2O)c(=O)n1` [azacitidine], the “genes up-regulated greater than 2-fold relative to vehicle control” value was 62 genes.

These data come from publication PMC5218480 (PLoS ONE, 2017).
